Reference: patent publication US6716865B1, “Benzoxa- and benzthiazoles” (Novartis AG, priority 1999, dated 2004)

Assays:
[1] = molecular target: T1, CHO cells stably transfected with human steroid sulfatase (CHO/STS) (Homo sapiens, UniProt P08842); assay: Steroid sulfatase inhibition in the CHO/STS assay; assay type: cell-based; conditions: assay 2, CHO/STS cells, overnight incubation, MUS substrate
T1 construct: expressed in transfected cells; host or cells: CHO cells, stably transfected
T1 sequence (P08842 22-583): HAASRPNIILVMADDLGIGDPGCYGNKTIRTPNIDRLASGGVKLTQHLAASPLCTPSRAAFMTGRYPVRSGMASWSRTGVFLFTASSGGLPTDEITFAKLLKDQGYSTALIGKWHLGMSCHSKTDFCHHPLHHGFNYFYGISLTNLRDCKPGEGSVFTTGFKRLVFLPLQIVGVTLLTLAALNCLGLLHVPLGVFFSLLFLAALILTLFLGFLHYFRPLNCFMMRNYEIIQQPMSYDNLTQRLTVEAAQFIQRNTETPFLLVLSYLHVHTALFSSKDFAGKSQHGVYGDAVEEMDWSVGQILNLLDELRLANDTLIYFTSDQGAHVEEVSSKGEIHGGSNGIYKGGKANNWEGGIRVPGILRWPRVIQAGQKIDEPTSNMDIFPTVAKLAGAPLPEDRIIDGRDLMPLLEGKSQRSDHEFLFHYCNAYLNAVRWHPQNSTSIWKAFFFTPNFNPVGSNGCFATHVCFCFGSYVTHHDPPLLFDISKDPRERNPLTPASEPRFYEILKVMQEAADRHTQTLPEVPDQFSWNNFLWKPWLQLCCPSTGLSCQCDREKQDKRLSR
Experimental: 2. Steroid sulfatase inhibition in the CHO/STS assay:
CHO cells stably transfected with human steroid sulfatase (CHO/STS) are seeded into microtiter plates. After reaching approximately 90% confluency, they are incubated overnight with graded concentrations of test substances. They are then fixed with 4% paraformaldehyde for 10 minutes at room temperature and washed 4 times with PBS before incubation with 100 μl/well 0.5 mM 4-methylumbelliferyl sulfate (MUS) dissolved in 0.1M Tris-HCl, pH 7.5. The enzyme reaction is carried out at 37° C. for one hour. Then 50 μl/well stop solution (1M Tris-HCl, pH 10.4) are added. The enzyme reaction solutions are transferred to white plates (Microfluor, Dynex, Chantilly, Va., USA) and read in a Fluoroskan II fluroescence microtiter plate reader. Reagent blanks are subtracted from all values. For drug testing, the fluorescence units (FU) are divided by the optical density readings after staining cellular protein with sulforhodamine B (OD550) in order to correct for variations in cell number. IC50 values are determined by linear interpolation between two bracketing points. In each assay with inhibitors, estrone 3-O-sulfamate is run as a reference compound, and the IC50 values are normalized to estrone 3-O-sulfamate:
relative IC50=IC50 compound/IC50 estrone 3-O-sulfamate.

[2] = molecular target: T2, Purified human steroid sulfatase (Homo sapiens, UniProt P08842); assay: Steroid sulfatase inhibition in vitro (p-nitrocatechol sulfate cleavage)
T2 sequence (P08842 22-583): T1 sequence (P08842 22-583)
Experimental: Steroid sulfatase inhibition in vitro:
Purified human steroid sulfatase not only is capable of cleaving steroid sulfates, but also readily cleaves aryl sulfates, such as p-nitrocatechol sulfate which is used herein. Assay mixtures are prepared by consecutively dispensing the following solutions into the wells of flat-bottom microtiter plates:
1) 50 μl inhibitor dilution in buffer (=0.1 M Tris-HCl, ph 7.5, 0.1% Triton X-100);
2) 50 μl substrate (=20 mM p-nitrocatechol sulfate in buffer)
3) 50 μl enzyme dilution to give a final concentration of 75 nM steroid sulfatase.
Plates are incubated at 37° C. for 30 minutes. The assay is stopped by addition of 100 μl of 1 N NaOH, and optical density measured in a microplate reader at 492 nm. […] IC50 values are calculated by nonlinear regression of the concentration/optical density data using the program Grafit (Erithacus Ltd.). Reported values are the result of three determinations.
From the fluorescence intensity data (I) obtained at different concentrations (c) of the test compound, the concentration inhibiting the enzymatic activity at 50% (IC50) is calculated using the equation [formula]
Relative IC50 values (rel IC50) are defined as follows: [formula]

rel IC50 (IC50 compound/IC50 estrone 3-O-sulfamate) [1]: 1.25 | IC50 [2]: ~970 nM
SMILES: NS(=O)(=O)Oc1ccc2nc(C=C3C4CC5CC(C4)CC3C5)oc2c1 [Example 12, sulfamic acid 2-(adamantan-2-ylidenemethyl)benzoxazol-6-yl ester]
